In the experiment the target is T1, MdtM (Escherichia coli, UniProt P39386).
T1 construct: full-length 410 residues, pBAD/Myc-His A vector (C-terminal Myc-His tag), overproduced in E. coli LMG194, purified in DDM detergent
Put plainly: biochemical. Format: binding. The source says: intrinsic tryptophan fluorescence quenching on MdtM

SMILES strings stand for the structures.

T1 sequence (P39386 whole entry): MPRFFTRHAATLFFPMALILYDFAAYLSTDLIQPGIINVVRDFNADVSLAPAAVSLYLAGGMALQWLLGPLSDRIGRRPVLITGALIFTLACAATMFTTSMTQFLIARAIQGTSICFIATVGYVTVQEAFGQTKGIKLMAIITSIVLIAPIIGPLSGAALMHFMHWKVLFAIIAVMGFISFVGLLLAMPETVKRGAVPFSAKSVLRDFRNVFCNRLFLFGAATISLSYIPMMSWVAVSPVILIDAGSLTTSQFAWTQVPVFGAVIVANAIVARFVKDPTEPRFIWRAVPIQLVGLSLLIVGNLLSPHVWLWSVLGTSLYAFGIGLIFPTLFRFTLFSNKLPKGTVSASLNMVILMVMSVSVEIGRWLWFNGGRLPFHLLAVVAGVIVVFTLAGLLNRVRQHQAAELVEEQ

Consider `c1ccc([P+](c2ccccc2)(c2ccccc2)c2ccccc2)cc1` [TPP+], for which the dissociation constant (Kd) (commonly a measure of binding affinity in units of concentration) came out at 400 ± 145 nM.
The value for `O=C(N[C@H](CO)[C@H](O)c1ccc([N+](=O)[O-])cc1)C(Cl)Cl` [chloramphenicol, 2,2-dichloro-N-[2-hydroxy-1-hydroxymethyl-2-(4-nitro-phenyl)-ethyl]-acetamide] was 22 ± 4 nM.

Source of the values: PMC4785361, “Insight into determinants of substrate binding and transport in a multidrug efflux protein” (Scientific Reports, 2016).
